Results reported in patent US20260116910A1, “POLYCYCLIC COMPOUNDS AND METHODS THEREOF” (HEPAITECH (BEIJING) BIOPHARMA TECHNOLOGY CO., LTD., priority 2021, published 2026).
Read-outs that look alike come from different tables or passages of the source.

Experiments:
human FXR (NR1H4) = molecular target: T1, human FXR (NR1H4) (Homo sapiens, UniProt Q96RI1); test: Human FXR (NR1H4) agonist assessment, FXRE-NanoLuc reporter in HEK293T cells; assay type: cell-based; details: for EC50: read-out: EC50
T1 sequence (Q96RI1 1-476 isoform Q96RI1-1): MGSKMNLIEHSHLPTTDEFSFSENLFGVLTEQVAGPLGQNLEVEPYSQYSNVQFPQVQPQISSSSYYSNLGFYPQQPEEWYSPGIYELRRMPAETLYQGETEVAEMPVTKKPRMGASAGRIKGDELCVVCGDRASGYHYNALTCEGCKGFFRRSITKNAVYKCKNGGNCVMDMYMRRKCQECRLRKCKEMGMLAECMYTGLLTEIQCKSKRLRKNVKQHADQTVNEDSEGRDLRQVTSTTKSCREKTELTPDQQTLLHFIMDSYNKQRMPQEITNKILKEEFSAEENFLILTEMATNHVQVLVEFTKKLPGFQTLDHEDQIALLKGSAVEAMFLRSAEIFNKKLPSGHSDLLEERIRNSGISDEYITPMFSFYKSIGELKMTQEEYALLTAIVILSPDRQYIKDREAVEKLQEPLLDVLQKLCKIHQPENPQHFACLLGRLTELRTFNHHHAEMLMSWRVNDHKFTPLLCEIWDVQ
Outline: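 Read-out was NanoLuc luminescence in culture medium, measured 5 min after adding coelenterazine. Cells were HEK293T stably carrying human FXR and an FXRE reporter, exposed to compound for 24 hr at 37 °C. Vehicle was 0.01% DMSO. EC50 was obtained from sigmoid fits of gradient dilutions.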

MRGPRX4 = MRGPRX4 (Homo sapiens, UniProt Q96LA9); test: MRGPRX4 activation, Fluo-8 Ca2+ FLIPR assay in HEK293T cells stably expressing MRGPRX4; assay type: cell-based; set-up: key to MRGPRX4 activation, Average / MRGPRX4 activation, Ave.: fluorescence change dF/F0; details: for EC50: MRGPRX4 activation, Ca2+ fluorescence, no activation in tested range reported as III, read-out: Activity (EC50 μM)
Outline: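 Response measured as dF/F0: 30 s baseline, then 150 s after compound addition on FLIPR Tetra, in HHBS after 40-60 min room-temperature loading with 2 μM Fluo-8 AM.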

[1] = FXR activation, HEK293T FXRE-NanoLuc reporter, 24 hr

Chain of MRGPRX4 (Q96LA9 whole entry): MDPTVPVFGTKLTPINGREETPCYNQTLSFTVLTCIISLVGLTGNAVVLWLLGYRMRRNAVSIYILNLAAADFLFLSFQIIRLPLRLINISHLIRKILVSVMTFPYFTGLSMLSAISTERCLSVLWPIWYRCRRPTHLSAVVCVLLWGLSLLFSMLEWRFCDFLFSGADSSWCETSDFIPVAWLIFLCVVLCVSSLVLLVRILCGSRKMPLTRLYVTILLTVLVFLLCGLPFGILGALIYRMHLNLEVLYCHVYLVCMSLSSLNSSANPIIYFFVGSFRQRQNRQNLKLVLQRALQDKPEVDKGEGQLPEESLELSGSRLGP

Structure (SMILES): CC[C@H]1[C@@H](O)[C@@H]2[C@H](CC[C@]3(C)[C@@H]([C@H](C)CCC(=O)O)CC[C@@H]23)[C@@]2(C)CCCC[C@@H]12 [compound 10]
- Efficacy (maximum measured induction of NanoLuc, normalized to CDCA set as 100%) (human FXR (NR1H4)): C (key: A: efficacy >400%; B: 300%<efficacy <=400%; C: 100%<efficacy <=300%; D: efficacy <=100%)
- EC50 (human FXR (NR1H4); [1]): 1 to 10 µM
- MRGPRX4 activation, fluorescence change (dF/F0), Average (MRGPRX4; Conc. (Log[M]) −4): 0.019
- MRGPRX4 activation, fluorescence change (dF/F0), Average (MRGPRX4; Conc. (Log[M]) −4.5): −0.031
- MRGPRX4 activation, fluorescence change (dF/F0), Average (MRGPRX4; Conc. (Log[M]) −5): −0.037
- MRGPRX4 activation, fluorescence change (dF/F0), Average (MRGPRX4; Conc. (Log[M]) −5.5): −0.032
- MRGPRX4 activation, fluorescence change (dF/F0), Average (MRGPRX4; Conc. (Log[M]) −6): −0.064
- MRGPRX4 activation, fluorescence change (dF/F0), Average (MRGPRX4; Conc. (Log[M]) −7): −0.043
- MRGPRX4 activation, fluorescence change (dF/F0), Average (MRGPRX4; Conc. (Log[M]) −8): −0.045
- MRGPRX4 activation, fluorescence change (dF/F0), Average (MRGPRX4; Conc. (Log[M]) −9): −0.048
- EC50 (MRGPRX4): > 100 µM

Structure (SMILES): CC[C@H]1[C@@H](O)[C@@H]2[C@H](CC[C@]3(C)[C@@H]([C@H](C)CCNC(=O)NS(=O)(=O)c4ccc(Br)cc4OC(F)(F)F)CC[C@@H]23)[C@@]2(C)CC[C@H](F)C[C@@H]12 [9-6]
- Efficacy (maximum measured induction of NanoLuc, normalized to CDCA set as 100%) (human FXR (NR1H4); [1]): C (100%<efficacy <=300%)
- EC50 (human FXR (NR1H4); [1]): < 1 µM
- MRGPRX4 activation, Average (MRGPRX4; E3-9, Conc. (Log[M]) −4.0): 0.021
- MRGPRX4 activation, Average (MRGPRX4; E3-9, Conc. (Log[M]) −4.5): 0.014
- MRGPRX4 activation, Average (MRGPRX4; E3-9, Conc. (Log[M]) −5.0): 0.016
- MRGPRX4 activation, Average (MRGPRX4; E3-9, Conc. (Log[M]) −5.4): 0.010
- MRGPRX4 activation, Average (MRGPRX4; E3-9, Conc. (Log[M]) −5.9): 0.019
- MRGPRX4 activation, Average (MRGPRX4; E3-9, Conc. (Log[M]) −6.4): 0.018
- MRGPRX4 activation, Average (MRGPRX4; E3-9, Conc. (Log[M]) −6.9): 0.016
- MRGPRX4 activation, Average (MRGPRX4; E3-9, Conc. (Log[M]) −7.3): 0.014
- MRGPRX4 activation, Average (MRGPRX4; E3-9, Conc. (Log[M]) −7.8): 0.012
- MRGPRX4 activation, Average (MRGPRX4; E3-9, Conc. (Log[M]) −8.3): 0.016
- EC50 (MRGPRX4): > 100 µM

Structure (SMILES): CC[C@H]1[C@@H](O)[C@@H]2[C@H](CC[C@]3(C)[C@@H]([C@H](C)CCNS(=O)(=O)c4cc(F)ccc4F)CC[C@@H]23)[C@@]2(C)CCCC[C@@H]12 [6-2]
- Efficacy (maximum measured induction of NanoLuc, normalized to CDCA set as 100%) (human FXR (NR1H4); [1]): C (100%<efficacy <=300%)
- EC50 (human FXR (NR1H4); [1]): 1 to 10 µM
- MRGPRX4 activation, Average (MRGPRX4; E3-9, Conc. (Log[M]) −4.0): 0.030
- MRGPRX4 activation, Average (MRGPRX4; E3-9, Conc. (Log[M]) −4.5): 0.023
- MRGPRX4 activation, Average (MRGPRX4; E3-9, Conc. (Log[M]) −5.0): 0.013
- MRGPRX4 activation, Average (MRGPRX4; E3-9, Conc. (Log[M]) −5.4): 0.020
- MRGPRX4 activation, Average (MRGPRX4; E3-9, Conc. (Log[M]) −5.9): 0.016
- MRGPRX4 activation, Average (MRGPRX4; E3-9, Conc. (Log[M]) −6.4): 0.016
- MRGPRX4 activation, Average (MRGPRX4; E3-9, Conc. (Log[M]) −6.9): 0.016
- MRGPRX4 activation, Average (MRGPRX4; E3-9, Conc. (Log[M]) −7.3): 0.018
- MRGPRX4 activation, Average (MRGPRX4; E3-9, Conc. (Log[M]) −7.8): 0.011
- MRGPRX4 activation, Average (MRGPRX4; E3-9, Conc. (Log[M]) −8.3): 0.018
- EC50 (MRGPRX4): > 100 µM

Structure (SMILES): C[C@H](CC/C=C/C(=O)O)[C@H]1CC[C@H]2[C@@H]3CC[C@@H]4C[C@H](O)CC[C@]4(C)[C@H]3C[C@H](O)[C@]12C [RC-7]
- Efficacy (maximum measured induction of NanoLuc, normalized to CDCA set as 100%) (human FXR (NR1H4); [1]): C (100%<efficacy <=300%)
- EC50 (human FXR (NR1H4); [1]): 1 to 10 µM
- MRGPRX4 activation, fluorescence change (dF/F0), Average (MRGPRX4; Conc. (Log[M]) −4): 0.049
- MRGPRX4 activation, fluorescence change (dF/F0), Average (MRGPRX4; Conc. (Log[M]) −4.5): 0.030
- MRGPRX4 activation, fluorescence change (dF/F0), Average (MRGPRX4; Conc. (Log[M]) −5): −0.027
- MRGPRX4 activation, fluorescence change (dF/F0), Average (MRGPRX4; Conc. (Log[M]) −5.5): −0.038
- MRGPRX4 activation, fluorescence change (dF/F0), Average (MRGPRX4; Conc. (Log[M]) −6): −0.035
- MRGPRX4 activation, fluorescence change (dF/F0), Average (MRGPRX4; Conc. (Log[M]) −7): 0.007
- MRGPRX4 activation, fluorescence change (dF/F0), Average (MRGPRX4; Conc. (Log[M]) −8): −0.030
- MRGPRX4 activation, fluorescence change (dF/F0), Average (MRGPRX4; Conc. (Log[M]) −9): −0.005
- EC50 (MRGPRX4): < 50 µM

Structure (SMILES): CC[C@H]1[C@@H](O)[C@@H]2[C@H](CC[C@]3(C)[C@@H]([C@H](C)CCC(=O)O)CC[C@@H]23)[C@@]2(C)CCC(F)(F)C[C@@H]12 [compound 55]
- Efficacy (maximum measured induction of NanoLuc, normalized to CDCA set as 100%) (human FXR (NR1H4); [1]): C (100%<efficacy <=300%)
- EC50 (human FXR (NR1H4); [1]): < 1 µM
- MRGPRX4 activation, Average (MRGPRX4; E3-9, Conc. (Log[M]) −4.0): 0.006
- MRGPRX4 activation, Average (MRGPRX4; E3-9, Conc. (Log[M]) −4.5): 0.004
- MRGPRX4 activation, Average (MRGPRX4; E3-9, Conc. (Log[M]) −5.0): 0.018
- MRGPRX4 activation, Average (MRGPRX4; E3-9, Conc. (Log[M]) −5.4): 0.023
- MRGPRX4 activation, Average (MRGPRX4; E3-9, Conc. (Log[M]) −5.9): 0.019
- MRGPRX4 activation, Average (MRGPRX4; E3-9, Conc. (Log[M]) −6.4): 0.019
- MRGPRX4 activation, Average (MRGPRX4; E3-9, Conc. (Log[M]) −6.9): 0.016
- MRGPRX4 activation, Average (MRGPRX4; E3-9, Conc. (Log[M]) −7.3): 0.019
- MRGPRX4 activation, Average (MRGPRX4; E3-9, Conc. (Log[M]) −7.8): 0.016
- MRGPRX4 activation, Average (MRGPRX4; E3-9, Conc. (Log[M]) −8.3): 0.018
- EC50 (MRGPRX4): > 100 µM

Structure (SMILES): CC[C@H]1[C@@H](O)[C@@H]2[C@H](CC[C@]3(C)[C@@H]([C@H](C)CCNC(=O)C(=O)NS(=O)(=O)c4ccc(C(C)(C)CF)cc4)CC[C@@H]23)[C@@]2(C)CCCC[C@@H]12 [8-3]
- Efficacy (maximum measured induction of NanoLuc, normalized to CDCA set as 100%) (human FXR (NR1H4); [1]): C (100%<efficacy <=300%)
- EC50 (human FXR (NR1H4); [1]): < 1 µM
- MRGPRX4 activation, Average (MRGPRX4; E3-9, Conc. (Log[M]) −4.0): 0.023
- MRGPRX4 activation, Average (MRGPRX4; E3-9, Conc. (Log[M]) −4.5): 0.016
- MRGPRX4 activation, Average (MRGPRX4; E3-9, Conc. (Log[M]) −5.0): 0.016
- MRGPRX4 activation, Average (MRGPRX4; E3-9, Conc. (Log[M]) −5.4): 0.023
- MRGPRX4 activation, Average (MRGPRX4; E3-9, Conc. (Log[M]) −5.9): 0.025
- MRGPRX4 activation, Average (MRGPRX4; E3-9, Conc. (Log[M]) −6.4): 0.013
- MRGPRX4 activation, Average (MRGPRX4; E3-9, Conc. (Log[M]) −6.9): 0.013
- MRGPRX4 activation, Average (MRGPRX4; E3-9, Conc. (Log[M]) −7.3): 0.013
- MRGPRX4 activation, Average (MRGPRX4; E3-9, Conc. (Log[M]) −7.8): 0.011
- MRGPRX4 activation, Average (MRGPRX4; E3-9, Conc. (Log[M]) −8.3): 0.018
- EC50 (MRGPRX4): > 100 µM
